Like-named read-outs stand apart in the source and are kept apart here. Marks after values point to notes of the source that are not given here.
Tests used:
[1] = test system: acetic acid-induced writhing; test: acetic acid-induced writhing test (peripheral analgesic); type: in vivo, albino mice; conditions: for Potency: % inhibition/protection compared to indomethacin
Protocol: Peripheral analgesic activity was measured by the standard acetic acid-induced writhing test in mice. […] One hour after the i.p. administration, each mouse was injected with 0.1 ml of 1% acetic acid solution i.p. The control group animals were given sterile/distilled water with few drops of Tween 80. Starting 5 min after the acetic acid injection, the number of muscular contractions in each mouse was counted for 30 min. A significant reduction in the number of writhing by a conjugate compared with control animals was considered as a positive analgesic response. Percentage protection was calculated according to equ. (3), where n is the average number of writhing in the control group and n′ is the average number of writhing in the treated group. The % potency was calculated by equ. (4) (Table 2).

hot plate latency = test: hot plate test (central analgesic); type: in vivo, albino mice; conditions: for Latency period ± SE: 10 mg/kg indomethacin mol equivalent i.p., cutoff 15 seconds; for % Protection: vs control; for Potency: at 120 min. compared to indomethacin
Protocol: An in vivo standard hot plate test was performed. […] The control group animals were given sterile/distilled water with few drops of Tween 80. The maximum cutoff time was 15 seconds to prevent tissue damage. Response latencies were measured at 30, 60, 90 and 120 inns. The % protection was calculated by equ. (5), where, Ti, To are the latency time mean of the tested compound and control group respectively (Table 3).

toxicological bioassay = conditions: 50 mg/kg indomethacin mol equivalent (5 folds of anti-inflammatory dose); 24 h post-administration
Protocol: Albino mice weighing 20-25 g were divided into 6 groups of 6 mice each. […] The toxic symptoms and mortality rates were recorded 24 h post-administration in each group.
Five times of the anti-inflammatory dose was orally administrated.

COX-1 = COX-1 (UniProt P05979); type: biochemical, human; conditions: ± SD
Chain of COX-1 (P05979 whole entry): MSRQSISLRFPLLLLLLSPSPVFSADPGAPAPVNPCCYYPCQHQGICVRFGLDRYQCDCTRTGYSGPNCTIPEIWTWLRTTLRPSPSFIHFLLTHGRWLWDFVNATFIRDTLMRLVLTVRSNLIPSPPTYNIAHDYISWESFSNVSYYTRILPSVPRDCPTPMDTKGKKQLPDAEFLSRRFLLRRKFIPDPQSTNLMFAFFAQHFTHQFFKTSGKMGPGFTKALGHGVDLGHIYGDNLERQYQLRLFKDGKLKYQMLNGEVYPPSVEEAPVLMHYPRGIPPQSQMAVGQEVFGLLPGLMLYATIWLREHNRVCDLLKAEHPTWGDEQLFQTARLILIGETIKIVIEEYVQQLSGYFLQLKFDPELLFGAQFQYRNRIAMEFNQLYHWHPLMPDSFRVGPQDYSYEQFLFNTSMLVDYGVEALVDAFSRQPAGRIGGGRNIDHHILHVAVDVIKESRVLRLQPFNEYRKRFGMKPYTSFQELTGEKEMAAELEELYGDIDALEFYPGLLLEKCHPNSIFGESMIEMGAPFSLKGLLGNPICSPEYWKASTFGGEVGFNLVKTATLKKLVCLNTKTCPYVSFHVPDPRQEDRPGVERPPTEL
Text: (§1) Rev. […] Thromb. Vasc. […] Rev. […] Rev. […] Rev. Oncol. Hematol. […] Curr. Pharm. Des. […] Luong, et al., Nat. Struct. […] A. and Marnett, L. J., Chem. Rev. […] Drug Discov. […] Biomol.

COX-2 = molecular target: T1, COX-2 (Homo sapiens, UniProt P35354); test: Inhibition of COX-2; type: biochemical; conditions: for SI: SI=IC50 (COX-1)/IC50 (COX-2); for IC50: ± SD
T1 construct: purchased BioVision Incorporated K547-100 and K548-100 (for COX-1/2)
T1 sequence (P35354 18-604): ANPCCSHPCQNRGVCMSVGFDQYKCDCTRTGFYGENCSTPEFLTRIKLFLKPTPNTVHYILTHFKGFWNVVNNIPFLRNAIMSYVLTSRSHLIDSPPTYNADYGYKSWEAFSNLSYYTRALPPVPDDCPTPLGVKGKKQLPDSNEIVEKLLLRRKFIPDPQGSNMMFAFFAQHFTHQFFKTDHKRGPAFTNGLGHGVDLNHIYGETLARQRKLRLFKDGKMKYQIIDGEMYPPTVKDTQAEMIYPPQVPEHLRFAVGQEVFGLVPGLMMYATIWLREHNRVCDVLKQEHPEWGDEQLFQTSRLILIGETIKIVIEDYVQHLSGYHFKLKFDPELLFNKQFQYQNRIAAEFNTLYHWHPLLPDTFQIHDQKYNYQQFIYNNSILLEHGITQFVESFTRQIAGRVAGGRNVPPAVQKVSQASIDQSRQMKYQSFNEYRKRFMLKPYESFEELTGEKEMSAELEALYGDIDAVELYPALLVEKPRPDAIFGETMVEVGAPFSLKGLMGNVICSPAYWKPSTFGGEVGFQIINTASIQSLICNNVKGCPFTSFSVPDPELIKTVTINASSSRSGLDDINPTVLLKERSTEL
Text: as §1

gastric mucosa [2] = conditions: mouse, in vivo
Protocol: (§2) The ulcerogenic liability of conjugates was determined in albino mice following a standard method. Animals of either sex (pregnant females were excluded) weighing 20-25 g were divided into 8 groups of 6 animals each. The animals fasted 18 h before drug administration. […] The control group animals were given water with a few drops of Tween 80. The animals were sacrificed by cervical dislocation and the stomach was removed, opened along the greater curvature, and rinsed with saline. The gastric mucosa was examined with a magnifying lens (10×) for the presence of lesions and erosions. The ulcer index was calculated (Table 4) and the degree of ulcerogenic effect was expressed in terms of: (1) the percentage incidence of ulcers divided by 10; (2) average number of ulcers per stomach; and (3) average severity of ulcers. The ulcer index is the value that resulted from the sum of the above three values.

[3] = test system: LPS-stimulated RAW264.7 macrophages; test: NO production (nitrite, Griess method) in LPS-stimulated RAW264.7; type: cell-based; conditions: LPS 10 ng/mL
Protocol: The Griess method was used to determine the nitrite concentration in cell culture medium. […] The next day, a volume of 150 μL of the cell supernatant was transferred to a new 96-well plate and 130 μL of deionized water was added on top of it. Lastly, a volume of 20 μL of Griess reagent was added to the cell supernatant and incubated for 30 min in the dark at room temperature. Griess reagent was prepared according to instructions: 1:1 ratio of N-1-naphthyl-ethylenediamine (0.1%) and phosphoric acid (5%) in sulphanilamide (1%) in distilled water. […] The concentration of nitrite was determined using a NaNO2 standard curve.
The nitrite production in the supernatant in the culture medium was measured using Greiss reaction.

gastric mucosa [4] = test: ulcerogenic liability; conditions: for % Incidence of ulcer divided by 10 / Average of ulcer number / Average severity of ulcer / Number of animals with ulcer: three successive days, 10 mg/kg indomethacin mol equivalent; for Number of animals with ulcer: 6 animals
Protocol: as §2

RAW264.7 macrophages = test: cell viability, MTT assay; type: cell-based; conditions: LPS-stimulated cells treated, FIG. 2B
Protocol: To ensure that the inflammatory response is not due to cell toxicity, cell viability measurements were done using MTT colorimetric assay. On the same cell cultured 96-well plate from the previous experiment, 100 μL of 1 mg/mL MTT solution was added to the adherent RAW264.7 macrophages cells at 37° C. and incubated for 2 h. After that, 100 μL of DMSO was added to the wells to dissolve insoluble formazan crystals. Absorbance was measured spectrophotometrically at 540 nm using a NanoSPECTROstar microplate reader (BMG LABTECH, Germany). Cell viability was then calculated as a percentage of untreated control.
Cytotoxicity of the macrophages was evaluated using MTT assay.

| Compound | Potency [1] | % Protection (hot plate latency; After 30 min.) | % Protection (hot plate latency; After 60 min.) | % Protection (hot plate latency; After 90 min.) | % Protection (hot plate latency; After 120 min.) | Potency (hot plate latency) | IC50 (COX-1) | SI (COX-2) | IC50 (COX-2) | % Incidence of ulcer divided by 10 (gastric mucosa [4]; oral) | Average of ulcer number (gastric mucosa [4]; oral) | Average severity of ulcer (gastric mucosa [4]; oral) | Number of animals with ulcer (gastric mucosa [4]; oral) | other results |
| --- | --- | --- | --- | --- | --- | --- | --- | --- | --- | --- | --- | --- | --- | --- |
| C#CCOC(=O)C(C)c1ccc(CC(C)C)cc1 (stereo not shown) [Compound 3, prop-2-yn-1-yl 2-(4-isobutylphenyl) propanoate] | 100.0% | (55.2) % | 2.1** (48.3) % | (19.2) % | (14.9) % | 26.4% | 19.4 ± 0.55 µM | 2.262 | 8.6 ± 0.24 µM |  |  |  |  | Writing reflex ± SE ([1]; number of writhing counted for 30 min, 10 mg/kg indomethacin mol equivalent i.p.): 11.3 ± 0.9; % Inhibition/protection ([1]; vs control, 10 mg/kg indomethacin mol equivalent i.p.): 71.8%; Latency period ± SE (hot plate latency; After 30 min.): 10.37 s; Latency period ± SE (hot plate latency; After 60 min.): 10.78 s; Latency period ± SE (hot plate latency; After 90 min.): 10.62 ± 2.2 s; Latency period ± SE (hot plate latency; After 120 min.): 10.35 ± 1.7 s; toxic symptoms and mortality (toxicological bioassay): No toxic symptoms or mortality; Ulcer index (gastric mucosa [2]): 4.33; % Incidence of ulcer divided by 10 (gastric mucosa [2]; po, 10 mg/kg): 3.33; Average of ulcer number (gastric mucosa [2]; po, 10 mg/kg): 0.33; Average severity of ulcer (gastric mucosa [2]; po, 10 mg/kg): 0.67; Number of animals with ulcer (gastric mucosa [2]; po, 10 mg/kg): 2/6 |
| COc1ccccc1-n1cc(COC(=O)C(C)c2ccc(CC(C)C)cc2)nn1 (stereo not shown) [Compound 5e, (1-(2-Methoxyphenyl)-1H-1,2,3-triazol-4-yl)methyl 2-(4-isobutylphenyl)propanoate] |  |  |  |  |  |  | 5.42 µM | 0.387 | 14 ± 0.4 µM | 0 | 0 | 0 | 0 | 1/(observed property) ([1]; 1/(% inhibition) peripheral analgesic): 0.0158; Observed property ([1]; % inhibition/protection peripheral analgesic): 63.3; Observed property (hot plate latency; % Protection central analgesic (120 min)): 28; decrease in NO production in comparison to LPS-stimulated cells (in words) [3]: insignificant decrease; ulcers or erosions to the gastric / ulcerogenic liability (in words) (gastric mucosa [4]; mice, oral): none and No ulcerogenic liability; Ulcer index (gastric mucosa [4]; sum of the three values): 0 |
| COc1ccc2c(c1)c(CC(=O)O)c(C)n2C(=O)c1ccc(Cl)cc1 [Indo, indomethacin, reference compound] | 100.0% | (87.1) % | 1.6** (80.9) % | (57.9) % | (56.5) % | 100% |  |  |  | 10 | 2 | 1.67 | 6/6 | Potency ([1]; listed as indomethacin): 100%; cytotoxicity (MTT) in comparison to control (RAW264.7 macrophages): no significant cytotoxicity |
